As usually defined, the inhibition is how much of the control response was suppressed. A higher inhibition goes with strong suppression. Broadly, the Ki is a dissociation constant, usually derived from enzyme kinetics or from competition with a known ligand.

Structures are written as SMILES.

In article PMC6274106, “Evaluation and Comparison of the Inhibition Effect of Astragaloside IV and Aglycone Cycloastragenol on Various UDP-Glucuronosyltransferase (UGT) Isoforms” (Molecules, 2016) one finds inhibition and Ki data, which are given here for two compounds.

Holding throughout (type): biochemical
Assay [1] has as its target T1, UGT2B7 (Homo sapiens, UniProt P16662).
T1 construct: recombinant human UGT supersomes (baculovirus-infected insect cells)
T1 sequence (P16662 24-529): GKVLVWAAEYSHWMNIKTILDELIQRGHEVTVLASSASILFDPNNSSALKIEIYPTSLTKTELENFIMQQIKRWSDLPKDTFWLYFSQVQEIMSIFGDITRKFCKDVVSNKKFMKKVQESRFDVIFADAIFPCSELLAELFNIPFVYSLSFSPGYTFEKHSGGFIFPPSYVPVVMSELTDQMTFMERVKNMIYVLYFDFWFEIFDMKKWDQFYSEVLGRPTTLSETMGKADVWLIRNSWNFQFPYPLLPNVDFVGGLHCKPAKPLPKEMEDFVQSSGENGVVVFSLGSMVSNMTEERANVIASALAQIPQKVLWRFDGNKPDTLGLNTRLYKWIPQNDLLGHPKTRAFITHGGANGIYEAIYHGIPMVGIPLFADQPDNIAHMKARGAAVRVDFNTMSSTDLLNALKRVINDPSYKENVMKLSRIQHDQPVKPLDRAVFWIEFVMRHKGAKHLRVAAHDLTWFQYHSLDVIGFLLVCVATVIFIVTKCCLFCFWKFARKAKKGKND
The assay is described as follows: 4-MU glucuronidation screen, […] inhibition at […].

Assay [2] addresses T1, UGT2B7. Nature of the assay: 4-MU glucuronidation by recombinant UGT supersomes, UPLC-UV; Dixon and Lineweaver-Burk plots (IC50 […]).
The next assay addresses T2, UGT1A1 (Homo sapiens, UniProt P22309).
T2 construct: recombinant human UGT supersomes (baculovirus-infected insect cells)
T2 sequence (P22309 26-533): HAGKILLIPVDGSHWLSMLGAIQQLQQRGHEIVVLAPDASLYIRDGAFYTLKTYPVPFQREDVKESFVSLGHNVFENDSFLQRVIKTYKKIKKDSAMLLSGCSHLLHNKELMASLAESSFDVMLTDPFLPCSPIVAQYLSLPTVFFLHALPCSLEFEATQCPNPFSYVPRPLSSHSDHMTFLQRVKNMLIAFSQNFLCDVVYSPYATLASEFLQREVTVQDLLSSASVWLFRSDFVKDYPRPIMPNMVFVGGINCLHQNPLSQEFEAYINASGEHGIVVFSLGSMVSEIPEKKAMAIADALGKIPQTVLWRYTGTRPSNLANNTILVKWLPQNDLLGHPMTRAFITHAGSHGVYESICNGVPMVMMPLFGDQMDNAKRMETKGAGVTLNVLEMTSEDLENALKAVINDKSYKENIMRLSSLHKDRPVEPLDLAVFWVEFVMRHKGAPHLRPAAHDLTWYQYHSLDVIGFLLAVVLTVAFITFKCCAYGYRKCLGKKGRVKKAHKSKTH
The assay is described as follows: 4-MU glucuronidation screen, […] inhibition at […].

Another assay addresses T3, UGT1A3 (Homo sapiens, UniProt P35503).
T3 construct: recombinant human UGT supersomes (baculovirus-infected insect cells)
T3 sequence (P35503 29-534): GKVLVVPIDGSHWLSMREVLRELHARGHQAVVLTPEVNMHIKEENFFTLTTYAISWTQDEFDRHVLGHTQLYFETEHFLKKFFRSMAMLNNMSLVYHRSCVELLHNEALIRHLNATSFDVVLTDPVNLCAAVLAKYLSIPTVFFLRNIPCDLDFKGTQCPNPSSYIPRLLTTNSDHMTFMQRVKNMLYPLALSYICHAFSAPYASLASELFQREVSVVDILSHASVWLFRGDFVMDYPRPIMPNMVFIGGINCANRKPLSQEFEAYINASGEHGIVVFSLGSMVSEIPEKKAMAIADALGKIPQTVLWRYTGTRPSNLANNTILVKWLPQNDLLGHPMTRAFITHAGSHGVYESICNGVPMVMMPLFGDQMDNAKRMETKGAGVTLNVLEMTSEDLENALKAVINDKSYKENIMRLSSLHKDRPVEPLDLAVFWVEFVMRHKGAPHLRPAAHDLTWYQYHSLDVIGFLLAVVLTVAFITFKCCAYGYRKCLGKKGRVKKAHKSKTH
Nature of the assay: 4-MU glucuronidation screen, […] inhibition at […].

The target in a further assay is T4, UGT1A8 (Homo sapiens, UniProt Q9HAW9).
T4 construct: recombinant human UGT supersomes (baculovirus-infected insect cells)
T4 sequence (Q9HAW9 26-530): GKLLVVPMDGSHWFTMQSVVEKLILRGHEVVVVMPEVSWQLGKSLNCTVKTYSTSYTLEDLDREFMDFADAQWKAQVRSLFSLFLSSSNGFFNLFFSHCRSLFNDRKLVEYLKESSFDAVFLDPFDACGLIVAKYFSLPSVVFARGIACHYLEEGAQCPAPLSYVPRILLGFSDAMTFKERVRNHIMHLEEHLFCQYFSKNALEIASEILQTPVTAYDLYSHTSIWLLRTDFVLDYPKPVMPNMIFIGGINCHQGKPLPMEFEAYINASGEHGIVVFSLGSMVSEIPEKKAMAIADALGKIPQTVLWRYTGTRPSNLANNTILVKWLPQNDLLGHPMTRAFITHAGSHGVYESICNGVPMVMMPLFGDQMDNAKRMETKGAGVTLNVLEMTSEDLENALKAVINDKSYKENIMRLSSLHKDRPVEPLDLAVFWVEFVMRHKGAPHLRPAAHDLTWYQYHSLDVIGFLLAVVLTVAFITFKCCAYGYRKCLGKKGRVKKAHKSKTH
Nature of the assay: 4-MU glucuronidation by recombinant UGT supersomes, UPLC-UV; Dixon and Lineweaver-Burk plots (IC50 […]).

`CC(C)(O)[C@@H]1CC[C@](C)([C@H]2[C@@H](O)C[C@@]3(C)[C@@H]4C[C@H](O[C@@H]5O[C@H](CO)[C@@H](O)[C@H](O)[C@H]5O)[C@H]5C(C)(C)[C@@H](O[C@@H]6OC[C@@H](O)[C@H](O)[C@H]6O)CC[C@@]56C[C@@]46CC[C@]23C)O1` [AST, astragaloside IV] registered an inhibition at 100 µM on UGT2B7 [1] of 51.5%.
For `CC(C)(O)[C@@H]1CC[C@](C)([C@H]2[C@@H](O)C[C@@]3(C)[C@@H]4C[C@H](O)[C@H]5C(C)(C)[C@@H](O)CC[C@@]56C[C@@]46CC[C@]23C)O1` [CAG, cycloastragenol], the Ki is 21 µM on UGT2B7 [2] and 0.034 µM at UGT1A8. Also, the inhibition at 100 µM worked out at 50.2% on UGT1A1 and 75.2% on UGT1A3.
